Test results as given in patent US20090192101A1, “CANCER-SPECIFIC PROMOTERS” (priority 2006, published 2009).

Columns and labels:
[1] = tested on: human normal and cancer cells; assay: Transient luciferase assay, promoter activity compared to CMV promoter; format: cell-based; conditions: electroporation, 24 hrs
Protocol: The activities of claudin 4 and fatty acid synthase promoters were compared to CMV promoter. […] 1×10^6 cells were transfected with 2 μg pGl3-claudin 4 luciferase vector, as well as 0.2 μg pRL-TK as internal standards by electroporation. The luciferase activity was measured after 24 hrs. The activities of claudin 4 and fatty acid synthase promoters were much weaker than that of CMV promoter, and were about 0.5% and 5% of CMV expression activity, respectively.

breast cancer cell lines = assay: Transient luciferase assay of promoter activity (electroporation, 24 hrs); format: cell-based, human; conditions: breast cancer cell lines such as T47D, MDA-MB-435, 2 μg vector
Protocol: (§1) Cells (1×10^6) were transfected with 2 μg pGl3-FASN-luciferase vector, as well as 0.2 μg pRL-TK as internal standards by electroporation. The luciferase activity was measured after 24 hrs.
(§2) In FIG. 2, the promoter activities of tight junction protein Claudin 4 in human normal and cancer cells is shown. Cells (1×10^6) were transfected with 2 μg pGl3-claudin 4 luciferase vector, as well as 0.2 μg pRL-TK as internal standards by electroporation. The luciferase activity was measured after 24 hrs.
(§3) Cells (1×10^6) were transfected with 2 μg VISA-claudin 4 or VISA-fatty acid synthase promoter vector, as well as 0.2 μg pRL-TK as internal standards by electroporation. The luciferase activity was measured after 24 hrs.
(§4) 1×10^6 cells were transfected with 2 μg pGl3-FASN-luciferase vector, as well as 0.2 μg pRL-TK as internal standards by electroporation. The luciferase activity was measured after 24 hrs. […]
(§5) Expression of claudin 4 promoter was ascertained in breast cancer cell lines, normal cell lines, and other cancer cell lines by transient luciferase assay. […] The luciferase activity was measured after 24 hrs. […]
(§6) 1×10^6 cells were transfected with 2 μg pGL3-VISA-Claudin4-Luc or pGL3-VISA-FASN-Luc plasmid, as well as 0.2 μg pRL-TK as internal standards by electroporation. The luciferase activities were measured 24 hrs after transient transfection. […]

[2] = tested on: normal and other cancer cell lines; assay: as above; format: cell-based, human; conditions: 2 μg vector
Protocol: as §1, §2, §3, §4, §5, §6

FASN promoter: fatty acid synthase promoter driving luciferase in pGl3 vector
promoter activity as % of CMV expression activity [1]: ~5% | promoter activity (luciferase) in breast cancer cell lines (breast cancer cell lines): highly expressed | promoter expression (luciferase) in normal and other cancer cell lines [2]: low
